Results taken from US10730885B1, “Coumarin derivatives” (KING SAUD UNIVERSITY, priority 2019, dated 2020).
In brackets after ≈: the same amount, converted by molar mass. Like-named read-outs stand apart in the source and are kept apart here.

Key:
trypsin = assay: Proteinase inhibitory activity (trypsin/casein); format: biochemical; conditions: for % Inhibition of proteinase activity: 250 μg/ml, mean ± SD (n = 3)
Procedure: For proteinase inhibitory activity, the reaction mixture (2 ml) contained 0.06 mg trypsin, 20 mM Tris HCl buffer (pH 7.4) and 1 ml test sample (250 μg/ml for each compound). The mixture was incubated for 5 min and then 1 ml of 0.8% (w/v) casein was added. The mixture was incubated for an additional 20 min. 1 ml of 10% perchloric acid was added to arrest the reaction. The cloudy suspension was centrifuged, and the absorbance of the supernatant was read at 280 nm. Reference standard compound aspirin was used as the positive control for this assay. The experiment was performed in triplicate. Percentage inhibition of […] was calculated by using the following formula:
[formula] where Acontrol is the absorbance of the control reaction and Atest is the absorbance of the control reaction with sample.

[1] = DPPH microplate radical scavenging antioxidant assay; format: biochemical; conditions: for IC50: DPPH, 30 min, mean ± SD (n = 3); for antioxidant activity: overview
Procedure: The antioxidant activity of the synthesized compounds was measured in terms of hydrogen-donating or radical scavenging ability using the DPPH microplate-based method. Absorbance measurement was obtained using Microplate/cuvette reader (Spectramax M5, Molecular Devices, California, USA). Reference standard compound ascorbic acid was used as the positive control for this assay at concentrations ranging from 1.563 to 200 μg/mL. Test samples were prepared at a starting concentration of 200 μg/mL after mixing with 100 μl of 0.2 mM DPPH methanolic solution. A series of concentrations were tested for the samples in order to determine the 50% inhibitory concentration (IC50). Samples were incubated with DPPH in the dark for 30 min at room temperature (25° C.). The DPPH solution in methanol was prepared daily and stored in a flask covered with aluminum foil. DPPH radicals have an absorption maximum (λmax) at 515 nm, in which the absorbance values were measured and converted into percentage of antioxidant activity.
Methanolic DPPH solution without antioxidant was applied as control and background control was samples in methanol only. IC50 was determined using Graphpad Prism 7 (Graphpad Software Inc. CA, USA). The percentage inhibition was calculated by using the formula:
The assay was carried out in triplicate and performed as much as possible in an area protected against light. The data points are presented as the mean±standard deviation (SD) (n=3).

tested microorganisms = assay: Agar well diffusion, summary over the tested microorganisms; format: cell-based; conditions: against one or more microorganisms
Description: (§1) The newly synthesized compounds were individually tested for their in vitro antimicrobial activity against the standard bacteria strains of American Type Culture Collection (ATCC), namely, Staphylococcus aureus ATCC 29213, Bacillus subtilis ATCC 6633, Bacillus megaterium ATCC 9885 (Gram-positive), Escherichia coli ATCC 2592 and Pseudomonas aeruginosa ATCC 27953 (Gram-negative). In addition, they were microbiologically tested against the locally isolated Saccharomyces cerevisiae (yeast) and the standard strain of Agricultural Research Service Culture Collection (NRRL) of the yeast like pathogenic fungus Candida albicans NRRL Y-477. The primary screening was carried out using the agar well diffusion method using nutrient agar (NA) medium and Sabourand dextrose agar (SDA) medium for pathological tested bacteria and yeast, respectively.
(§2) Antimicrobial tests were carried out by the agar well diffusion method using 100 μL of suspension containing 1×10^8 CFU/mL of pathological tested bacteria and 1×10^6 CFU/ml of yeast spread on NA and SDA, respectively. After the media was cooled and solidified, wells (10 mm in diameter) were made in the solidified agar and loaded with 100 μL of tested compound solution prepared by dissolving 10 mg of the chemical compound in one ml of dimethyl sulfoxide (DMSO). The inculcated plates were then incubated for 24 h at 37° C. for bacteria and yeast. Negative controls were prepared using DMSO employed for dissolving the tested compound. Ciprofloxacin (10 mg/ml) and ketoconazole (10 mg/ml) were used as standard for antibacterial and antifungal activity, respectively. After incubation time, antimicrobial activity was evaluated by measuring the zone of inhibition against the test organisms and compared with that of the standard. Antimicrobial activities were expressed as inhibition diameter zones in millimeters (mm). The experiment was carried out in triplicate and the average zone of inhibition was calculated.

[2] = tested on: Bacillus subtilis ATCC 6633; assay: Agar well diffusion, primary antimicrobial screening; format: cell-based; conditions: for antibacterial activity compared with reference drug: B. subtilis; for zone of inhibition at 10000 µg/mL: Bacillus subtilis, ATCC6633, B. subtilis ATCC 6633, 100 μL of 10 mg/ml in DMSO, 24 h, read-out: Inhibition Diameter Zone BS
Description: as §1, §2

[3] = tested on: Staphylococcus aureus ATCC 29213; assay: as above; format: cell-based; conditions: S. aureus
Description: as §1, §2

[4] = tested on: Saccharomyces cerevisiae (local isolate); assay: as above; format: cell-based; conditions: for zone of inhibition at 10000 µg/mL: Saccharomyces cerevisiae, 24 h, read-out: Inhibition Diameter Zone SC
Description: as §1, §2

[5] = tested on: Bacillus megaterium ATCC 9885; assay: as above; format: cell-based; conditions: Priestia megaterium, ATCC9885; B. megaterium ATCC 9885; 100 μL of 10 mg/ml in DMSO, 24 h; read-out: Inhibition Diameter Zone BM
Description: as §1, §2

[6] = tested on: Candida albicans NRRL Y-477; assay: as above; format: cell-based; conditions: for zone of inhibition at 10000 µg/mL: Candida albicans, NRRLY477, C. albicans NRRL Y-477, 100 μL of 10 mg/ml in DMSO, 24 h, read-out: Inhibition Diameter Zone CA; for antifungal activity compared with reference drug: C. albicans
Description: as §1, §2

[7] = tested on: Escherichia coli ATCC 2592; assay: as above; format: cell-based; conditions: E. coli
Description: as §1, §2

[8] = S. cerevisiae local isolate, 100 μL of 10 mg/ml in DMSO

Row | melting point | IC50 [1] | SMILES | % Inhibition of proteinase activity (trypsin) | also measured
1 | 324 to 325 °C | 19.25 ± 4.171 µg/mL (≈ 58.1 µM) | Cc1ccc2oc(=O)c(S(=O)(=O)Nc3ccccc3)c(O)c2c1 [Compound 11b, 4-Hydroxy-6-methyl-2-oxo-N-phenyl-2H-chromene-3-sulfonamide] | 14.3 ± 2.21% | antioxidant activity [1]: particularly high antioxidant activity
2 | 250 to 252 °C | – | Cc1ccc2oc(=O)c3c(c2c1)OC(N=Cc1ccccc1)=C(C#N)C3c1ccco1 (racemic) [Compound 8b, (±)-2-(benzylideneamino)-4-(furan-2-yl)-9-methyl-5-oxo-4H,5H-pyrano[3,2-c]chromene-3-carbonitrile] | – | –
3 | > 300 °C | — ((—): inactive (IC50 > 200 μg/mL)) | COc1ccc(/C=C/C(=O)c2ccc(NS(=O)(=O)c3c(O)c4cc(C)ccc4oc3=O)cc2)cc1 [Compound 12f, (E)-4-hydroxy-N-(4-(3-(4-methoxyphenyl)acryloyl)phenyl)-6-methyl-2-oxo-2H-chromene-3-sulfonamide] | 21.7 ± 7.6% | –
4 | > 300 °C | — ((—): inactive (IC50 > 200 μg/mL)) | COc1ccc(/C=C/C(=O)c2ccc(NS(=O)(=O)c3c(O)c4cc(Cl)ccc4oc3=O)cc2)cc1 [Compound 12e, (E)-6-chloro-4-hydroxy-N-(4-(3-(4-methoxyphenyl)acryloyl)phenyl)-2-oxo-2H-chromene-3-sulfonamide] | 22.83 ± 4.88% | –
5 | 220 to 222 °C | — ((—): inactive (IC50 > 200 μg/mL)) | Cc1ccc2oc(=O)c(S(=O)(=O)Nc3ccc(C(=O)/C=C/c4ccc([N+](=O)[O-])cc4)cc3)c(O)c2c1 [Compound 12b, (E)-4-hydroxy-6-methyl-N-(4-(3-(4-nitrophenyl)acryloyl)phenyl)-2-oxo-2H-chromene-3-sulfonamide] | – | –
6 | 215 to 217 °C | 71.67 ± 3.231 µg/mL (≈ 139 µM) | O=c1oc2ccc(Cl)cc2c(O)c1S(=O)(=O)Nc1ccc(S(=O)(=O)Nc2nccs2)cc1 [Compound 10e, 6-chloro-4-hydroxy-2-oxo-N-(4-(N-(thiazol-2-yl)sulfamoyl)phenyl)-2H-chromene-3-sulfonamide] | – | –

The next lines start with the compound.

Row | SMILES | melting point | IC50 [1] | % Inhibition of proteinase activity (trypsin) | also measured
7 | NS(=O)(=O)c1ccc(NS(=O)(=O)c2c(O)c3cc(Cl)ccc3oc2=O)cc1 [Compound 10a, 6-Chloro-4-hydroxy-2-oxo-N-(4-sulfamoylphenyl)-2H-chromene-3-sulfonamide] | 245 to 247 °C | 93.12 ± 0.727 µg/mL (≈ 216 µM) | 18.78 ± 2.05% | antimicrobial activity compared with standard antimicrobials (ciprofloxacin and ketoconazole) (tested microorganisms): equal to or higher than the standard antimicrobials; antibacterial activity compared with reference drug [2]: comparable antibacterial activities to the standard; antibacterial activity compared with ciprofloxacin [3]: equal to ciprofloxacin
8 | O=C1O[C@H]([C@@H](O)CO)C(O)=C1O [Ascorbic acid, ascorbic acid, reference compound] | – | 2.83 ± 0.166 µg/mL (≈ 16.1 µM) | – | –
9 | Cc1ccc2oc(=O)c3c(c2c1)OC(N=CN(C)C)=C(C#N)C3c1ccco1 (racemic) [Compound 7b, (±)-N′-(3-cyano-4-(furan-2-yl)-9-methyl-5-oxo-4H,5H-pyrano[3,2-c]chromen-2-yl)-N,N-dimethylformimidamide] | 273 to 275 °C | — ((—): inactive (IC50 > 200 μg/mL)) | 33.17 ± 2.79% | zone of inhibition at 10000 µg/mL [2]: < 15 mm; zone of inhibition at 10000 µg/mL [4]: < 15 mm; zone of inhibition at 10000 µg/mL [5]: < 15 mm; zone of inhibition at 10000 µg/mL [6]: < 15 mm
10 | O=c1oc2ccc(Cl)cc2c(O)c1S(=O)(=O)Nc1ccccc1 [Compound 11a, 6-Chloro-4-hydroxy-2-oxo-N-phenyl-2H-chromene-3-sulfonamide] | 337 to 339 °C | 14.51 ± 1.827 µg/mL (≈ 41.2 µM) | 44.7 ± 8.22% | in vitro anti-proteinase activity compared with aspirin (trypsin): as potent; antimicrobial activity compared with standard antimicrobials (ciprofloxacin and ketoconazole) (tested microorganisms): equal to or higher than the standard antimicrobials; antifungal activity compared with reference drug [6]: higher antifungal activity; antioxidant activity [1]: particularly high antioxidant activity
11 | Cc1ccc2oc(=O)c(S(=O)(=O)Nc3ccc(C(=O)/C=C/c4ccc(Cl)cc4)cc3)c(O)c2c1 [Compound 12d, (E)-N-(4-(3-(4-chlorophenyl)acryloyl)phenyl)-4-hydroxy-6-methyl-2-oxo-2H-chromene-3-sulfonamide] | 141 to 143 °C | — ((—): inactive (IC50 > 200 μg/mL)) | 31.88 ± 3.82% | antimicrobial activity compared with standard antimicrobials (ciprofloxacin and ketoconazole) (tested microorganisms): equal to or higher than the standard antimicrobials; antibacterial activity compared with reference drug [2]: comparable antibacterial activities to the standard; antimicrobial activity compared with ketoconazole ([4]; S. cerevisiae): higher than that of the corresponding control drug; zone of inhibition at 10000 µg/mL [4, 8]: 32 mm; antibacterial activity compared with ciprofloxacin [7]: higher antibacterial activity than ciprofloxacin; antibacterial activity compared with ciprofloxacin [3]: equal to ciprofloxacin; antifungal activity compared with reference drug [6]: higher antifungal activity
12 | CC(=O)Oc1ccccc1C(=O)O [Aspirin, aspirin, reference compound] | – | – | 45.83 ± 4.21% | –
13 | Cc1ccc2oc(=O)c3c(c2c1)OC(N)=C(C(N)=O)C3c1ccco1 (racemic) [Compound 6b, (±)-2-amino-4-(furan-2-yl)-9-methyl-5-oxo-4H,5H-pyrano[3,2-c]chromene-3-carboxamide] | 202 to 204 °C | 48.38 ± 4.61 µg/mL (≈ 143 µM) | – | in vitro anti-proteinase activity compared with aspirin (trypsin): more potent; % Inhibition of proteinase activity (trypsin; listed as 6h): 49.28 ± 10.93%; zone of inhibition at 10000 µg/mL [2]: < 15 mm; zone of inhibition at 10000 µg/mL [5]: < 15 mm
14 | O=C(O)c1cn(C2CC2)c2cc(N3CCNCC3)c(F)cc2c1=O [Ciprofloxacin, reference compound] | – | – | – | zone of inhibition at 10000 µg/mL [4, 8]: < 15 mm; zone of inhibition at 10000 µg/mL [6]: < 15 mm
